Laboratory results published in patent publication US20210283220A1, “ANTIBODY MOLECULE-DRUG CONJUGATES AND USES THEREOF” (priority 2017, published 2021).
No end group written: not given here.

Experiments:
E. coli = assay: Minimal inhibitory concentration (MIC) assay, broth microdilution; assay type: cell-based, Escherichia coli; conditions: for MIC Eco 25922: E. coli 25922; for MIC Eco 43745: E. coli 43745, in the presence of PBS
Procedure: (§1) Daughter plates were prepared as follows.
(§2) Cultured media were prepared as follows.

P. aeruginosa 27853 = assay: MIC / killing activity in the presence of human serum (hsMIC, 50% human serum); assay type: cell-based, Pseudomonas aeruginosa; conditions: for 50% hsMIC Pae 27853: P. aeruginosa 27853, 50% human serum; for hsMIC/MIC: ratio
Procedure: In an embodiment, the MIC is determined in the presence of phosphate-buffered saline (PBS). In an embodiment, the MIC or hsMIC is determined on per ADC basis. In an embodiment, the MIC or hsMIC is determined on per payload or antimicrobial peptide basis.

P. aeruginosa [1] = assay: Minimal inhibitory concentration (MIC) assay, broth microdilution; assay type: cell-based, Pseudomonas aeruginosa
P. aeruginosa ATCC 27853 = assay: Resistance rate determination (standard and micro-dotting protocols); assay type: cell-based, Pseudomonas aeruginosa
Source text: . These rates are considered favorable when compared to published rates in the 10^−5 to 10^−8 range. […]

K. pneumoniae = assay: Minimal inhibitory concentration (MIC) assay, broth microdilution; assay type: cell-based, Klebsiella pneumoniae; conditions: K. pneumoniae 700603; in the presence of PBS
Procedure: as §1, §2

S. aureus = assay: as above; assay type: cell-based, Staphylococcus aureus; conditions: S. aureus 29213; in the presence of PBS
Procedure: as §1, §2

P. aeruginosa [2] = assay: Microbial killing assay (percent killing, CFU); assay type: cell-based, Pseudomonas aeruginosa; conditions: for 50% Killing Activity, BAA-2108: MDR P. aeruginosa strain BAA-2108; for 50% Killing Activity, BAA-2110: MDR P. aeruginosa strain BAA-2110; for 50% Killing Activity, BAA-2114: MDR P. aeruginosa strain BAA-2114; for 50% Killing Activity, Pae 27853: P. aeruginosa strain 27853, Table 10
Procedure: Bactericidal assay: Direct killing activity of the ADC can be measured against two well described laboratory strains of P. aeruginosa (PA14 and PA01) and no less than three clinical strains of P. aeruginosa, including MDR and Pan-resistant strains. These assays are conducted in the absence of complement or effector cells. Activity in this assay can provide insight on the inherent killing activity of the ADC.
The microbial killing assay was performed as follows. Bacterial cells were grown aerobically overnight on agar plates at 37° C. Overnight plates were used to seed 30 ml cultures of growth media in 250 ml vented flasks. Cultures were grown aerobically at 37° C., shaking at 150 rpm. Growth was monitored at A600 nM and bacterial cells were harvested at mid-log growth. Ten ml of culture was pelleted at 4000×G for 10 minutes and washed one time with PBS plus 1% BSA before re-suspending in 2 ml PBS+BSA. […] Cultures were diluted to 1×10^4 cells/ml in PBS plus BSA. Test articles were diluted in PBS+1% BSA and 50 μl per concentration tested was loaded into a 96 well polypropylene microtiter plate. Fifty μl of diluted culture was added to all test wells as well as no compound control wells. Plates were shaken and incubated at 37° C., 90 minutes, static. Ten μl from each assay well was plated onto agar plates and incubated at 37° C. overnight. Percent killing was determined by the CFU for test wells compared to the CFU for no compound control wells.

[3] = P. aeruginosa 27853, in the presence of PBS
[4] = P. aeruginosa 39324, in the presence of PBS

With “(MAL)-(EG3)-GIGKFLKKAKKFGKAFVKILKK [peptide 21]” the “MIC Eco 25922” value (E. coli) was 8 µg/mL.

With Ceftazadime [reference compound] the “50% hsMIC Pae 27853” value (P. aeruginosa 27853) was 1 µg/mL, the hsMIC/MIC (P. aeruginosa 27853) was 1 and the “MIC Pae 27853” value (P. aeruginosa [1]; [3]) was 1 µg/mL. The “MIC Pae 39324” value (P. aeruginosa [1]; [4]) was 1 µg/mL, the “MIC Pae 27853” value (P. aeruginosa [1]; strain Pae27853) was 1 µg/mL and the “MIC Pae 39324” value (P. aeruginosa [1]; strain Pae39324) was 2 µg/mL.

In the case of Colistin [reference compound], the “resistance rate, Micro-dotting” value (P. aeruginosa ATCC 27853; 2x MIC) is reported as 1.08E−07, the “resistance rate, Standard” value (P. aeruginosa ATCC 27853; 2x MIC) is reported as 6.50E−08 and the “resistance rate, Micro-dotting” value (P. aeruginosa ATCC 27853; 4x MIC) is reported as 2.10E−09. For the same substance, the “resistance rate, Standard” value (P. aeruginosa ATCC 27853; 4x MIC) was 1.60E−09, the “resistance rate, Micro-dotting” value (P. aeruginosa ATCC 27853; 8x MIC) was less than 1.1E−09 and the “resistance rate, Standard” value (P. aeruginosa ATCC 27853; 8x MIC) was less than 1.6E−09.

In the case of “GAFGNFLKGVAKKAGLKILSIAQCKLFGTC [peptide 70]”, the “MIC Eco 25922” value (E. coli) is reported as 4 µg/mL and the “MIC Pae 27853” value (P. aeruginosa [1]; P. aeruginosa 27853) is reported as 8 µg/mL.

For “GGG-D-Dab-cyclic(L-Dab-L-Dab-D-Leu-L-Phe-L-Dab-L-Dab-L-Leu) [GGG-Octapeptin]”, the “50% hsMIC Pae 27853” value (P. aeruginosa 27853) was 2 µg/mL, the hsMIC/MIC (P. aeruginosa 27853) was 1 and the “MIC Pae 27853” value (P. aeruginosa [1]; [3]) was 2 µg/mL. The “MIC Pae 39324” value (P. aeruginosa [1]; [4]) was 2 µg/mL, the “MIC Kpn 700603” value (K. pneumoniae) was greater than 128 µg/mL and the “MIC Sau 29213” value (S. aureus) was greater than 128 µg/mL.

In the case of “GGGGIGKFLKKAKKFGKAFVKILKK [Peptide P261]”, the “MIC Eco 43745” value (E. coli) is reported as 4 µg/mL.

“GGGGLRKRLRKFRNKIKEKLKKIGQKIQGLLPKLA [Peptide P271]” was tested, and the “MIC Eco 43745” value (E. coli) was 4 µg/mL.

“GGGGLRRLGRKIAHGIKKYGPTILRIIRIAG [Peptide P293]” was tested, and the “MIC Eco 43745” value (E. coli) was 4 µg/mL, the “MIC Pae 27853” value (P. aeruginosa [1]; [3]) was 8 µg/mL and the “MIC Pae 39324” value (P. aeruginosa [1]; [4]) was 2 µg/mL. For the same substance, the “MIC Kpn 700603” value (K. pneumoniae) was 4 µg/mL.

“GGGGRFKRFRKKFKKLFKKLSPVIPLLHLG [Peptide P295]” was tested, and the “50% Killing Activity, BAA-2108” value (P. aeruginosa [2]) was 0.6 µg/mL, the “50% Killing Activity, BAA-2110” value (P. aeruginosa [2]) was 0.6 µg/mL and the “50% Killing Activity, BAA-2114” value (P. aeruginosa [2]) was 0.14 µg/mL. For the same substance, the “50% Killing Activity, Pae 27853” value (P. aeruginosa [2]) was 0.3 µg/mL, the “50% hsMIC Pae 27853” value (P. aeruginosa 27853) was 2 µg/mL and the hsMIC/MIC (P. aeruginosa 27853) was 0.5. The “MIC Pae 27853” value (P. aeruginosa [1]; [3]) was 4 µg/mL, the “MIC Pae 39324” value (P. aeruginosa [1]; [4]) was 4 µg/mL and the “MIC (P. aeruginosa ATCC 27853)” value (P. aeruginosa [1]) was 1 to 4 µg/mL.

With “GGGGSGGGGSGIGKFLKKAKKFGKAFVKILKK [peptide 23]” the “MIC Eco 25922” value (E. coli) was 8 µg/mL.

With “GGGKFFRKLKKSVKKRAKEFFKKPRVIGVSIPF [Peptide P297]” the “50% Killing Activity, BAA-2108” value (P. aeruginosa [2]) was 0.28 µg/mL, the “50% Killing Activity, BAA-2110” value (P. aeruginosa [2]) was 0.28 µg/mL and the “50% Killing Activity, BAA-2114” value (P. aeruginosa [2]) was 0.07 µg/mL. For the same substance, the “50% Killing Activity, Pae 27853” value (P. aeruginosa [2]) was 0.04 µg/mL, the “MIC Eco 43745” value (E. coli) was 2 µg/mL and the “50% hsMIC Pae 27853” value (P. aeruginosa 27853) was 8 µg/mL. For the same substance, the hsMIC/MIC (P. aeruginosa 27853) was 2, the “MIC Pae 27853” value (P. aeruginosa [1]; [3]) was 4 µg/mL and the “MIC Pae 39324” value (P. aeruginosa [1]; [4]) was 2 µg/mL. The “MIC (P. aeruginosa ATCC 27853)” value (P. aeruginosa [1]) was 1 to 4 µg/mL.

“GGGKRFKKFFKKLKNSVKKRAKKFFKKPRVIGVSIPF [Peptide P296]” was tested, and the “MIC Eco 43745” value (E. coli) was 4 µg/mL, the “50% hsMIC Pae 27853” value (P. aeruginosa 27853) was 1 µg/mL and the hsMIC/MIC (P. aeruginosa 27853) was 0.25. For the same substance, the “MIC Pae 27853” value (P. aeruginosa [1]; [3]) was 4 µg/mL and the “MIC Pae 39324” value (P. aeruginosa [1]; [4]) was 2 µg/mL.

In the case of “GGGLLGDFFRKSKEKIGKEFKRIVQRIKDFLRNLVPRTES [Peptide P265]”, the “MIC Eco 43745” value (E. coli) is reported as 8 µg/mL, the “50% hsMIC Pae 27853” value (P. aeruginosa 27853) is reported as greater than 128 µg/mL and the hsMIC/MIC (P. aeruginosa 27853) is reported as greater than 4. For the same substance, the “MIC Kpn 700603” value (K. pneumoniae) was greater than 128 µg/mL.

In the case of “GGGRGLRRLGRKIAHGVKKYGPTVLRIIKKYG [Peptide P294]”, the “MIC Eco 43745” value (E. coli) is reported as 2 µg/mL and the “MIC Kpn 700603” value (K. pneumoniae) is reported as 8 µg/mL.

In the case of GIGKFLKKAKKFGKAFVKILKK [peptide 109], the “MIC Eco 25922” value (E. coli) is reported as 4 µg/mL and the “MIC Pae 27853” value (P. aeruginosa [1]; P. aeruginosa 27853) is reported as 8 µg/mL.

“GIGKFLKKAKKFGKAFVKILKK-NH2 [Peptide P32]” was tested, and the “resistance rate, Micro-dotting” value (P. aeruginosa ATCC 27853; 2x MIC) was 1.08E−07, the “resistance rate, Micro-dotting” value (P. aeruginosa ATCC 27853; 4x MIC) was 9.59E−08 and the “resistance rate, Standard” value (P. aeruginosa ATCC 27853; 4x MIC) was less than 1.6E−09. For the same substance, the “growth of resistant colonies, standard protocol” value (P. aeruginosa ATCC 27853; 4×MIC and above) was “no growth was observed”, the “resistance rate, Micro-dotting” value (P. aeruginosa ATCC 27853; 8x MIC) was 8.02E−09 and the “resistance rate, Standard” value (P. aeruginosa ATCC 27853; 8x MIC) was less than 1.6E−09.

“GIGKFLKKAKKFGKAFVKILKKGGGGSGGGGS [peptide 24]” was tested, and the “MIC Pae 27853” value (P. aeruginosa [1]; P. aeruginosa 27853) was 8 µg/mL.

With “GLRKRLRKFRNKIKEKLKKIGQKIQGLLPKLA [Peptide 33]” the “MIC Eco 25922” value (E. coli) was 8 µg/mL and the “MIC Pae 27853” value (P. aeruginosa [1]; P. aeruginosa 27853) was 8 µg/mL.

For “RLGNFFRKAKKKIGRGLKKIGQKIKDFLGNLVPRTES [peptide 128]”, the “MIC Pae 27853” value (P. aeruginosa [1]; P. aeruginosa 27853) was 8 µg/mL.
